Here are results for 27 molecules from patent publication US9902696B2, “1,4-substituted piperidine derivatives” (Cephalon, Inc., priority 2015, dated 2018).

In data set [1] the target is T1, recombinant human baculovirus-expressed GST-tagged FASN (Homo sapiens, UniProt P49327).
T1 construct: GST
The data set is described as follows: FASN enzyme activity assay, fluorescence-based detection of CoA with CPM. The class given is biochemical. To be noted: 5 nM FASN, 150 μM NADPH, 10 μM acetyl-CoA, 25 μM malonyl-CoA, 90 minutes incubation. The method, boiled down: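 CoA product reacted with thiol-reactive CPM (diluted to 50 μM in 70% ethanol), read at 390/530 nm after 30 min. Preceding reaction: 90 min, 5 nM recombinant GST-FASN, 150 μM NADPH, 10 μM acetyl-CoA, 25 μM malonyl-CoA, pH 7.5 HEPES, 0.5% DMSO. IC50s fitted by nonlinear sigmoidal regression.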

[2] abbreviates: read-out: IC50 data for Additional Compounds of Formulae I-V(a): Activity.

By melting point is commonly meant the temperature, or range, at which the solid turns liquid.

Where a name gives a salt, the structure may show the parent alone. Read-outs that look alike come from different tables or passages of the source.

T1 sequence (P49327 whole entry): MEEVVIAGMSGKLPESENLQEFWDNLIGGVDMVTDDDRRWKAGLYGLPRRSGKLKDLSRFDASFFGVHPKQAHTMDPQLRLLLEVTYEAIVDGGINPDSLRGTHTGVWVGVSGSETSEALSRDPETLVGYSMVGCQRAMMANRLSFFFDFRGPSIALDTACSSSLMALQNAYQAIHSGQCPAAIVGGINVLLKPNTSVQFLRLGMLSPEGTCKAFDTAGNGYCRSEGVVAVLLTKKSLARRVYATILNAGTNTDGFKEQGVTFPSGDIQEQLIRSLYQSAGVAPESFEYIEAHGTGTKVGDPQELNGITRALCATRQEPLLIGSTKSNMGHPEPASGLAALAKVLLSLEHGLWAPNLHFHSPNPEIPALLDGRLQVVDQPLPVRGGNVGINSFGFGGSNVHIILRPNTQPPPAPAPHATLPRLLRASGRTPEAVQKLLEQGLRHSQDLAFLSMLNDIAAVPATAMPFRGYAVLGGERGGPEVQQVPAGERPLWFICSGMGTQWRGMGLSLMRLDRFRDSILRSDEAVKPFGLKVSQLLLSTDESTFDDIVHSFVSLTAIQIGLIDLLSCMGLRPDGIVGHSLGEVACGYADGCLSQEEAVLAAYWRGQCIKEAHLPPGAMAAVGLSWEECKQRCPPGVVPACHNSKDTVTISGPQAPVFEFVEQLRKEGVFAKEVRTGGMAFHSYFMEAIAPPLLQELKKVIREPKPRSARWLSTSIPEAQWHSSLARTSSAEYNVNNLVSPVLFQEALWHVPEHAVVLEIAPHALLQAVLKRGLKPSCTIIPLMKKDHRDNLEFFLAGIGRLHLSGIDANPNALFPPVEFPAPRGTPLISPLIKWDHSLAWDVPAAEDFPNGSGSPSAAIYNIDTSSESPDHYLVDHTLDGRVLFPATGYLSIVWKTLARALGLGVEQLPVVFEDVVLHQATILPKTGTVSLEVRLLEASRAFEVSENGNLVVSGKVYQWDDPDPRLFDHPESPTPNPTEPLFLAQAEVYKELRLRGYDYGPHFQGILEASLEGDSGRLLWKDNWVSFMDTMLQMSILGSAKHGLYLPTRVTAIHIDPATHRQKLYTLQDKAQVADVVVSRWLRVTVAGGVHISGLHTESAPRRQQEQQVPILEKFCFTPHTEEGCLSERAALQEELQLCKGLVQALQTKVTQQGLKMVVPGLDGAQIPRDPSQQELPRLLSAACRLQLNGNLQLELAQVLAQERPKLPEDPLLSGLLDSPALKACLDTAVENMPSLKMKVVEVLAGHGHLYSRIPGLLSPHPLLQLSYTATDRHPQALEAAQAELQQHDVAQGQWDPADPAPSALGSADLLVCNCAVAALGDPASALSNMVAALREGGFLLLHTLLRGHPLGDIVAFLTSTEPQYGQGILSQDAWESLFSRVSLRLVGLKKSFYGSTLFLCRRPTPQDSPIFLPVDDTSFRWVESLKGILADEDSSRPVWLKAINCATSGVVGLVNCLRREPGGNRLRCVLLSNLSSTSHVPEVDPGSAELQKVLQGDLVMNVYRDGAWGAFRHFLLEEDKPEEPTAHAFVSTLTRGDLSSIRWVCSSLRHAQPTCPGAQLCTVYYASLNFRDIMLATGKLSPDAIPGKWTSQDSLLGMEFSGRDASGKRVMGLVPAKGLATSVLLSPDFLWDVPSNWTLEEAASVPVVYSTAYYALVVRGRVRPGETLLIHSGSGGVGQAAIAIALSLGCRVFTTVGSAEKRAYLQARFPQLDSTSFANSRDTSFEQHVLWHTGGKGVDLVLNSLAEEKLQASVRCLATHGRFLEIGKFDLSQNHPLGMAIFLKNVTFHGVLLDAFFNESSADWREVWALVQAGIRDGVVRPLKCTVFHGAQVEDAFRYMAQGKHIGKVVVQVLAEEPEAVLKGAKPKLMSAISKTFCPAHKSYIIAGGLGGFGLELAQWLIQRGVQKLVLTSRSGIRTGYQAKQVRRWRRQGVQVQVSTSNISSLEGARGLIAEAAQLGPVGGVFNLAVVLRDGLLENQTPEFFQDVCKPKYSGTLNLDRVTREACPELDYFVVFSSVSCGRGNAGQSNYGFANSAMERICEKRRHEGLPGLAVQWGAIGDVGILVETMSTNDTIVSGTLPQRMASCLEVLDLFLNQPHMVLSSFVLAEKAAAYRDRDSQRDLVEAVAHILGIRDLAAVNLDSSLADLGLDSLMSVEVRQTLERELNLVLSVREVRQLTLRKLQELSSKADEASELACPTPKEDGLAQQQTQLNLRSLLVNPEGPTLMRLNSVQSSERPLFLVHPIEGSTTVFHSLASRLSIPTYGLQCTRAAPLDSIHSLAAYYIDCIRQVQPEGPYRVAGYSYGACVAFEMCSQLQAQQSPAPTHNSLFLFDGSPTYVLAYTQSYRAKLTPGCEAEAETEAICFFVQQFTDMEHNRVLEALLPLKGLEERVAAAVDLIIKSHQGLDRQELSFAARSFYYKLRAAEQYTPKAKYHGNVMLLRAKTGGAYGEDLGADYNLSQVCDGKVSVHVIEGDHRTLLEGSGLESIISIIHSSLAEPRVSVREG

For the molecule `NC(=O)N1CCC(Oc2ccc(-c3ccc4nccn4c3Cl)cc2)CC1` [Example 577, 4-[4-(5-Chloroimidazo[1,2-a]pyridin-6-yl)phenoxy]piperidine-1-carboxamide], the melting point amounted to 204 °C. Also, the IC50 in data set [1] (setting [2]) was 0.1 to 0.999 µM.

For the molecule `CCNC(=O)N1CCC(Oc2ccc(-c3ccc4c(C)nccc4c3)cc2)CC1` [Example 578, N-Ethyl-4-[4-(1-methyl-6-isoquinolyl)phenoxy]piperidine-1-carboxamide], the melting point is 211 °C. In addition, the IC50 in data set [1] (setting [2]) was 1 to 10 µM.

As for `Cc1nccc2cc(-c3ccc(OC4CCN(C(=O)NCC5CC5)CC4)cc3)ccc12` [Example 582, N-(Cyclopropylmethyl)-4-[4-(1-methyl-6-isoquinolyl)phenoxy]piperidine-1-carboxamide], the melting point was found to be 188 °C. Moreover, in data set [1] (setting [2]), the IC50 is 1 to 10 µM.

The molecule `O=C(C1CC1)N1CC(Oc2ccc(-c3cnc4ccccc4c3)cc2)C1` [Example 340, Cyclopropyl(3-(4-(quinolin-3-yl)phenoxy)azetidin-1-yl)methanone] registered a melting point of 187 °C. In data set [1] (read-out: IC50 data for Compounds of Formulae I-V/V(a): Activity), the IC50 was 1 to 10 µM.

Take `CCCNC(=O)N1CCC(Oc2ccc(-c3ccc4c(C)nccc4c3)cc2)CC1` [Example 579, 4-[4-(1-Methyl-6-isoquinolyl)phenoxy]-N-propyl-piperidine-1-carboxamide]: the melting point worked out at 181 °C. Besides, in data set [1] (setting [2]), the IC50 was 0.1 to 0.999 µM.

Consider `Cc1nccc2cc(-c3ccc(OC4CCN(C(=O)NOC(C)C)CC4)cc3)ccc12` [Example 583, N-Isopropoxy-4-[4-(1-methyl-6-isoquinolyl)phenoxy]piperidine-1-carboxamide], for which the melting point was 189 °C. Besides, the IC50 in data set [1] (setting [2]) is 0.001 to 0.099 µM.

In turn, `CCC(=O)N1CCC(Sc2ccc(-c3ccc4cccnc4c3)cc2)CC1` (as salt: HCl) [Example 516, 1-(4-((4-(quinolin-7-yl)phenyl)thio)piperidin-1-yl)propan-1-one, HCl] yielded a melting point of 188 °C.

`CC(C)C(=O)N1CCC(Sc2ccc(-c3ccc4cnccc4c3)cc2)CC1` (as salt: HCl) [Example 521, 1-(4-((4-(Isoquinolin-6-yl)phenyl)thio)piperidin-1-yl)-2-methylpropan-1-one HCl] came in with a melting point of 228 °C.

`O=C(C1CC1)N1CCC(Oc2ccc(-c3ccc4cccnc4c3)nc2)CC1` (as salt: HCl) [Example 146, Cyclopropyl-[4-(6-quinolin-7-yl-pyridin-3-yloxy)-piperidin-1-yl]-methanone, 2HCl] had a melting point of 170 to 175 °C.

With `CCCCNC(=O)N1CCC(Oc2ccc(-c3ccc4nccn4c3Cl)cc2)CC1` [Example 563, N-Butyl-4-[4-(5-chloroimidazo[1,2-a]pyridin-6-yl)phenoxy]piperidine-1-carboxamide], the melting point was 171 to 177 °C. The IC50 in data set [1] (setting [2]) was 0.001 to 0.099 µM.

Consider `CCC(=O)N1CCC(Sc2ccc(-c3cnc4ccccc4c3)cc2)CC1` (as salt: HCl) [Example 518, 1-(4-((4-(Quinolin-3-yl)phenyl)thio)piperidin-1-yl)propan-1-one, HCl], for which the melting point is 70 °C.

`CCC(=O)N1CCC(Sc2ccc(-c3cncc4ccccc34)cc2)CC1` (as salt: HCl) [Example 519, 1-(4-((4-(Isoquinolin-4-yl)phenyl)thio)piperidin-1-yl)propan-1-one, HCl] yielded a melting point of 88 °C.

As to `O=C(C1CCCC1)N1CCC(Oc2ccc(-c3cnc4ccccc4c3)cc2)CC1` (as salt: HCl) [Example 102, Cyclopentyl-[4-(4-quinolin-3-yl-phenoxy)-piperidin-1-yl]-methanone, 2HCl], the melting point lay in the range of 145 to 147 °C.

With `CCC(=O)N1CCC(Oc2ccc(-c3ccc4cnccc4c3)nc2)CC1` (as salt: HCl) [Example 147, 1-[4-(6-Isoquinolin-6-yl-pyridin-3-yloxy)-piperidin-1-yl]-propan-1-one, 2HCl], the melting point was in the range of 236 to 245 °C.

In turn, `O=C(C1CC1)N1CCC(Oc2ccc(-c3cnc4ccccc4c3)nc2)CC1` (as salt: HCl) [Example 142, Cyclopropyl-[4-(6-quinolin-3-yl-pyridin-3-yloxy)-piperidin-1-yl]-methanone, 2HCl] returned a melting point of 230 to 234 °C.

`O=C(C1CCC1)N1CCC(Oc2ccc(-c3cnc4ccccc4c3)cc2)CC1` (as salt: HCl) [Example 101, Cyclobutyl-[4-(4-quinolin-3-yl-phenoxy)-piperidin-1-yl]-methanone,HCl]: the melting point is 164 to 166 °C.

In the case of `CCC(=O)N1CCC(Oc2ccc(-c3cnc4ccccc4c3)nc2)CC1` (as salt: HCl) [Example 140, 1-[4-(6-Quinolin-3-yl-pyridin-3-yloxy)-piperidin-1-yl]-propan-1-one, 2HCl], the melting point is 207 to 212 °C.

`O=C(C1CC1)N1CCC(Oc2ncc(-c3cnc4ccccc4c3)cn2)CC1` (as salt: HCl) [Example 139, Cyclopropyl-[4-(5-quinolin-3-yl-pyrimidin-2-yloxy)-piperidin-1-yl]-methanone, 2HCl] returned a melting point of 150 to 153 °C.

As for `CCC(=O)N1CC[C@H](Oc2ccc(-c3cnc4ccccc4c3)cc2)C1` (as salt: HCl) [Example 343, (S)-1-(3-(4-(Quinolin-3-yl)phenoxy)pyrrolidin-1-yl)propan-1-one, HCl], the melting point amounted to 60 °C.

Consider `CC(C)C(=O)N1CCC(Sc2ccc(-c3ccc4cccnc4c3)cc2)CC1` (as salt: HCl) [Example 520], for which the melting point came out at 120 °C.

Molecule `CCC(=O)N1CCC(Sc2ccc(-c3ccc4cnccc4c3)cc2)CC1` (as salt: HCl) [Example 517, 1-(4-((4-(Isoquinolin-6-yl)phenyl)thio)piperidin-1-yl)propan-1-one, HCl] came in with a melting point of 222 °C.

Regarding `CC(C)C(=O)N1CCC(Sc2ccc(-c3cncc4ccccc34)cc2)CC1` (as salt: HCl) [Example 523, 1-(4-((4-(Isoquinolin-4-yl)phenyl)thio)piperidin-1-yl)-2-methylpropan-1-one HCl], the melting point amounted to 120 °C.

Turning to `CCC(=O)N1CC[C@@H](Oc2ccc(-c3ccc4cccnc4c3)cc2)C1` (as salt: HCl) [Example 344, (R)-1-(3-(4-(Quinolin-7-yl)phenoxy)pyrrolidin-1-yl)propan-1-one, HCl], the melting point is 53 °C.

Molecule `CCC(=O)N1CCC(Oc2ccc(-c3ccc4cccnc4c3)nc2)CC1` (as salt: HCl) [Example 144, 1-[4-(6-Quinolin-7-yl-pyridin-3-yloxy)-piperidin-1-yl]-propan-1-one, 2HCl] had a melting point of 90 to 96 °C.

Molecule `CC(C)C(=O)N1CCC(Sc2ccc(-c3cnc4ccccc4c3)cc2)CC1` (as salt: HCl) [Example 522, 2-Methyl-1-(4-((4-(quinolin-3-yl)phenyl)thio)piperidin-1-yl)propan-1-one, HCl] yielded a melting point of 130 °C.

Consider `CCC(=O)N1CC[C@@H](Oc2ccc(-c3cnc4ccccc4c3)cc2)C1` (as salt: HCl) [Example 345, (R)-1-(3-(4-(quinolin-3-yl)phenoxy)pyrrolidin-1-yl)propan-1-one, HCl], for which the melting point was 51 °C.

With `CC(C)C(=O)N1CCC(Oc2ncc(-c3cnc4ccccc4c3)cn2)CC1` (as salt: HCl) [Example 138, 2-Methyl-1-[4-(5-quinolin-3-yl-pyrimidin-2-yloxy)-piperidin-1-yl]-propan-1-one, 2HCl], the melting point was 124 to 130 °C.
